The text below walks through data of patent US12016922B2, “Stabilized aqueous antibody compositions” (Arecor Limited, priority 2012, dated 2024).

One series deals with rituximab. In words: Aggregation of rituximab formulations on storage, % HMWS by size exclusion chromatography. To be noted: trehalose 200 mM, pH 6.5, 40° C.; for effect on the rate of formation of HMWS / rate of aggregation compared with Original formulation: Example 4: rituximab 100 mg/ml; for effect on the rate of formation of HMWS: compared with background formulation without oligomer; for % HMWS 16 weeks / % HWMS 0 weeks: rituximab 100 mg/ml; for effect on the rate of aggregation: Example 5: rituximab 140 mg/ml; for % HMWS 0 weeks / % HMWS 12 weeks / % HMWS 26 weeks: rituximab 140 mg/ml. The series is classed as physicochemical. The protocol:
(§1) Formulations of protein therapeutics, rituximab and certolizumab pegol, were prepared either in the absence or in the presence of various oligomers of ethyleneimine. The following products were used as the starting material: MabThera® (rituximab) and Cimzia® (certolizumab pegol). The compositions of the two products are as follows:
(§2) In order to prepare the formulations for testing, it was necessary to remove the original excipients and replace them with the selected excipients. The following procedure was used to prepare the formulations for testing: Original compositions were removed from the manufacturer's container and dialysed in 3.5 kDa cut-off dialysis cassettes (Thermo Pierce) at 2-8° C., using three changes for a minimum of 4 hours in each, including one overnight incubation.
(§3) The background solutions, containing the new excipients and adjusted to the required pH, were added to the dialysed proteins to achieve the required concentration of excipients and the protein in the final composition. The formulated samples were placed into storage at 40° C. or at 5° C., and stability was tested after a given period of time. The stability of the proteins was tested in compositions containing oligomers of ethyleneimine and compared to a ‘Control formulation’ with identical background in the absence of the oligomers.
(§4) The amount of high molecular weight species is measured using a 300×7.8 mm S3000 (or equivalent) size-exclusion column with a guard column. The mobile phase is potassium phosphate pH 6.5, with a flow rate of 0.4 ml/min, injection volume of 1 μl and detected at 210 and 280 nm. The results are expressed as % high molecular species (HMWS), i.e. sum of all peak areas corresponding to aggregated protein over the sum of all protein-related peaks on the chromatogram. […] However, within a given time-point the samples are tested using the column in the same condition, so the values generated within the time-point represent a very good indication of the relative stability of the protein in the compositions tested.
Rituximab was formulated at 100 mg/ml in the following background solution: EDTA (0.2 mM), methionine (1 mM), histidine (10 mM). The pH was adjusted to 6.5.
Rituximab was formulated at 100 mg/ml in the following background solution: EDTA (0.2 mM), methionine (1 mM), histidine (10 mM), in the presence of arginine (80 mM) as a tonicity modifier. The pH of all formulations was adjusted to 6.5. For comparison, the formulation of commercial liquid rituximab product (‘Original formulation’ also with rituximab at 100 mg/ml) was also included.
Rituximab was formulated at 100 mg/ml in the following background solution: EDTA (0.2 mM), methionine (1 mM) histidine (10 mM) and trehalose (200 mM). The pH was adjusted to 6.5.
Rituximab was formulated at 140 mg/ml in the following background solution: EDTA (0.2 mM), methionine (1 mM), histidine (10 mM) and trehalose (200 mM). The pH was adjusted to 6.5.
In general terms: In gel filtration, larger molecules generally elute earlier.

A further series deals with Certolizumab pegol. In words: Aggregation of certolizumab pegol formulations on storage, % HMWS by size exclusion chromatography. The series is classed as physicochemical. To be noted: Certolizumab pegol 100 mg/ml, 40° C. The protocol:
as §1, §2, §3, §4
Certolizumab pegol was formulated at 100 mg/ml in histidine buffer (10 mM, pH 6.0) in the presence of either NaCl (150 mM) or 1,2-propandiol (200 mM) as tonicity modifiers.

Where [1] appears, read: histidine 10 mM pH 6.0, 1,2-propanediol 200 mM, additive 3 mg/ml.
Where [2] appears, read: histidine 10 mM pH 6.0, 1,2-propanediol 200 mM, additive 35.9 mg/ml.
Setting [3] is: histidine 10 mM pH 6.0, NaCl 150 mM, additive 3 mg/ml.
The mark [4] stands for this setting: histidine 10 mM pH 6.0, NaCl 150 mM, additive 35.9 mg/ml.

Regarding “2K mPEG valerate PEI800 [Compound (4), reference compound]”, in the series on rituximab, the “effect on the rate of formation of HMWS” value is given as “reduced the rate of formation of HMWS in a dose dependent manner”. The “% HMWS 16 weeks” value turned out to be 2.57% with rituximab (additive 0.2 mg/ml), 1.06% in the series with rituximab (additive 1 mg/ml) and 0.93% in the series on rituximab (additive 5 mg/ml). Further, the “% HWMS 0 weeks” value in the series with rituximab (additive 0.2 mg/ml) is recorded as 0.69%; with rituximab (additive 1 mg/ml) it was 0.79%; in the series with rituximab (additive 5 mg/ml), 0.69%.
Turning to “5K mPEG Propyl Triethylenetetramine Ethanol [Compound (2)]”, the “effect on the rate of aggregation” value in the series on rituximab is “reduction in the rate of aggregation”. The “% HMWS 0 weeks” value with rituximab (additive 0.2 mg/ml) is 0.25%; in the series with rituximab (additive 1 mg/ml), 0.40%; in the series with rituximab (additive 5 mg/ml), 0.35%; in the series on Certolizumab pegol (setting [1]) it was 0.64%; in the series on Certolizumab pegol (setting [2]), 0.81%; in the series on Certolizumab pegol (setting [3]), 0.66%. Moreover, the “% HMWS 0 weeks” value in the series with Certolizumab pegol (setting [4]) is given as 0.79%. Moreover, the “% HMWS 12 weeks” value was 1.31% in the series on rituximab (additive 0.2 mg/ml), 1.17% with rituximab (additive 1 mg/ml) and 0.97% in the series on rituximab (additive 5 mg/ml). In addition, the “% HMWS 26 weeks” value is on record as 4.79% in the series with rituximab (additive 0.2 mg/ml), 4.44% with rituximab (additive 1 mg/ml) and 3.60% in the series with rituximab (additive 5 mg/ml). Moreover, the “% HMWS 8 weeks” value turned out to be 2.02% in the series with Certolizumab pegol (setting [1]), 2.47% in the series on Certolizumab pegol (setting [2]), 3.32% with Certolizumab pegol (setting [3]) and 2.39% in the series with Certolizumab pegol (setting [4]).
Take `NCCNCCN` [Diethylenetriamine]: in the series on rituximab, the “rate of aggregation compared with Original formulation” value is “lower”; the “effect on the rate of formation of HMWS” value is recorded as “considerably reduce the rate of formation of HMWS in a dose dependent manner”; the “effect on the rate of aggregation” value is “considerable, dose-dependent reduction in the aggregation rate”. In the series with rituximab (additive 0.2 mg/ml), the “% HMWS 16 weeks” value was found to be 0.94% and the “% HWMS 0 weeks” value stood at 0.81%. Also, in the series with rituximab (additive 1 mg/ml), the “% HMWS 16 weeks” value was 0.70%, the “% HWMS 0 weeks” value was found to be 0.70%, the “% HMWS 0 weeks” value turned out to be 0.38% and the “% HMWS 12 weeks” value was 0.24%. In the series with rituximab (additive 5 mg/ml), the “% HMWS 16 weeks” value is given as 0.67%, the “% HWMS 0 weeks” value turned out to be 0.79%, the “% HMWS 0 weeks” value is recorded as 0.37% and the “% HMWS 12 weeks” value is listed as 0.29%. In the series with rituximab (additive 5 mg/ml), the “% HMWS 26 weeks” value stood at 1.83%. Also, in the series with rituximab (additive 0.02 mg/ml), the “% HMWS 0 weeks” value amounted to 0.37%, the “% HMWS 12 weeks” value was found to be 0.91% and the “% HMWS 26 weeks” value is recorded as 4.09%. Moreover, in the series on rituximab (additive 0.1 mg/ml), the “% HMWS 0 weeks” value stood at 0.38%, the “% HMWS 12 weeks” value is listed as 0.35% and the “% HMWS 26 weeks” value stood at 0.89%.
Consider `NCCN` [Ethylenediamine, reference compound], for which the “effect on the rate of formation of HMWS” value with rituximab was “less effective in reducing the formation of HMWS”. Moreover, the “% HMWS 16 weeks” value in the series on rituximab (additive 0.2 mg/ml) stood at 2.44%; in the series on rituximab (additive 1 mg/ml), 2.27%; with rituximab (additive 5 mg/ml), 2.08%. Moreover, the “% HWMS 0 weeks” value in the series with rituximab (additive 0.2 mg/ml) was 0.49%; in the series with rituximab (additive 1 mg/ml), 0.72%; in the series with rituximab (additive 5 mg/ml) it was 0.78%.
For `NCCNCCNCCN` [Triethylenetetramine], the “rate of aggregation compared with Original formulation” value in the series with rituximab is “lower”. For the same molecule, the “effect on the rate of formation of HMWS” value in the series on rituximab was “considerably reduce the rate of formation of HMWS in a dose dependent manner”. Also, the “effect on the rate of aggregation” value with rituximab is “considerable, dose-dependent reduction in the aggregation rate”. Moreover, the “% HMWS 16 weeks” value in the series with rituximab (additive 0.2 mg/ml) was determined as 0.81%; in the series with rituximab (additive 1 mg/ml) it was 0.56%; with rituximab (additive 5 mg/ml), 0.51%. Besides, the “% HWMS 0 weeks” value in the series on rituximab (additive 0.2 mg/ml) turned out to be 0.74%; in the series on rituximab (additive 1 mg/ml), 0.84%; with rituximab (additive 5 mg/ml), 0.74%. Moreover, the “% HMWS 0 weeks” value in the series with rituximab (additive 0.03 mg/ml) came out at 0.36%; in the series on rituximab (additive 1 mg/ml) it was 0.36%; in the series on rituximab (additive 5 mg/ml) it was 0.26%; in the series on rituximab (additive […]), 0.35%; in the series with Certolizumab pegol (histidine 10 mM pH 6.0, 1,2-propanediol 200 mM, additive 1 mg/ml), 0.55%; in the series on Certolizumab pegol (setting [1]) it was 0.49%. Further, the “% HMWS 0 weeks” value was determined as 0.63% in the series with Certolizumab pegol (histidine 10 mM pH 6.0, NaCl 150 mM, additive 1 mg/ml) and 0.49% in the series with Certolizumab pegol (setting [3]). In addition, the “% HMWS 12 weeks” value with rituximab (additive 0.03 mg/ml) is on record as 0.29%; in the series on rituximab (additive 1 mg/ml), 0.27%; with rituximab (additive 5 mg/ml), 0.17%; in the series with rituximab (additive […]), 0.32%. Also, the “% HMWS 26 weeks” value worked out at 4.18% in the series on rituximab (additive 0.03 mg/ml), 0.45% in the series with rituximab (additive 1 mg/ml), 0.64% with rituximab (additive 5 mg/ml) and 3.26% in the series on rituximab (additive […]). The “% HMWS 8 weeks” value in the series with Certolizumab pegol (setting [1]) was found to be 0.85%.
